Test results published in paper PMC11111404, “Discovery of potent small-molecule inhibitors of lipoprotein(a) formation” (Nature, 2024).
Values joined by “and” are separate entries in the source; they are usually repeats but may differ in a detail not shown here. Equal entries are not always repeated.

Columns and labels:
plasmin activity = target: T1, plasmin activity (Rattus norvegicus, UniProt Q01177); assay: Rat plasma plasmin (plasminogen) activity ex vivo after oral dosing; type: in vivo; settings: rat plasma, individual animal; for PLG activity (Vmax), % change from Vehicle: vehicle mean 431.7
T1 construct: Plasma samples were collected via the abdominal aorta; from tissue; host or cells: Citrated plasma of orally dosed male Sprague Dawley rats
Method: Male Sprague Dawley rats (Charles River, average body weight 310 g, aged eight to nine weeks old) were housed in cages with a standard light cycle (12-h light, 12-h dark), at room temperature (22 ± 4 °C), with a relative humidity of 30–70%. Rats were identified by numbers on the cage cards. After arrival, rats were fed on a normal diet (Harlan Teklad diet 2014) and randomized to treatment groups (n = 5 per group) by baseline plasma plasminogen concentration and activity using a BRAT. LSN3441732 and LY3473329 were administered QD orally at three dose levels (3.7, 12.3 and 37 mg kg^−1; 3.2, 10.5 and 31.6 mg kg^−1 per dose, respectively) or vehicle (10 ml kg^−1, 1% HEC, 0.25% Tween-80, Antifoam) for four days. Terminal blood was drawn under general anaesthesia 24 h after the day-4 oral dose. Plasma samples were collected via the abdominal aorta into a premeasured anticoagulant BD Vacutainer used for blood collection (2.7 ml, buffered sodium citrate). The liver was flash frozen in liquid nitrogen. To measure plasminogen activity, 100 µl plasma per well was added to a 96-well plate (Corning) and the following were added to the indicated concentrations: 7.5 mM CaCl2 and 117 mM NaCl. Wells were mixed and warmed to 37 °C. Urokinase (Millipore) was added at 125 U per well and the plate was incubated at 37 °C for 4 min. The plasminogen substrate Chromogenix S-2251 (DiaPharma) was added to a concentration of 3.3 mM. The mixture was added and the plate was sealed and placed in a prewarmed plate reader, shaken, and the absorbance read every 30 s for 2 h. The maximum slope for each curve was determined and the percentage inhibition was calculated relative to untreated controls. Plasminogen protein was measured using ELISA kits for rat (Abcam ab157740) according to the manufacturer’s instructions. Plasminogen activity (percentage) and mass (µg ml^−1) in rat were analysed by ANOVA in JMP 16.1.0. The percentage reduction of plasminogen activity and mass for each treated group was compared with vehicle by Dunnett’s method.

Lp(a) = Lp(a) levels in cynomolgus monkeys; type: in vivo, cynomolgus monkey (Macaca fascicularis); set-up: key to Mean_pCFB_vs_Veh / Mean_pCFB_vs_Veh (Lp(a)): % change from pre-dose, treated group compared with vehicle; key to Mean_pCFB / Mean_pCFB (Lp(a)): % change in Lp(a) from before dosing; settings: cynomolgus monkey; for Mean_pCFB_vs_Veh (Lp(a)): difference vs vehicle; for Mean_pCFB (Lp(a)): group mean
Method: Female or male Chinese Macaca fascicularis cynomolgus monkeys (as described in the figure legends) of unspecified ages with body weight ranging from 2.0 kg to 5.0 kg were housed in cages with a standard light cycle (12-h light, 12-h dark) at room temperature (20–26 °C); the relative humidity ranged from 30% to 70%. Monkeys were given fruits, vegetables or dietary enrichment as a form of environmental enrichment, and various cage enrichment devices. Purina Lab diet 5048C was provided BID and individual monkeys were identified by cage card. The monkeys were randomized to treatment groups by body weight and baseline plasma Lp(a) concentration, as determined by a commercially available Randox assay (Randox LP2757), using a BRAT for the study. In an example cynomolgus monkey study in which 39 monkeys were prescreened for baseline Lp(a) levels, the average Lp(a) level was 350 ± 57 µg ml^−1 (range 53–1,667 µg ml^−1). Monkeys were dosed orally with vehicle (purified water) or compounds QD or BID for 14 days, at dose levels and frequencies as previously described for each compound. Plasma samples were collected on days before dosing to establish baseline Lp(a) and after the morning dose during the study. Lp(a) levels were measured by an investigator who was blinded to group allocation using the Randox assay, and were quantified relative to the calibrator series (Randox LP3404). Data were analysed in GraphPad Prism v.9.5.1. The Lp(a) percentage change from before dosing in non-human primates was analysed by repeated measures ANOVA in SAS v.9.4 (SAS). At each time point, the Lp(a) percentage change for each treated group was compared with vehicle by the Bonferroni method.

[1] = 3473329 dose 3.2 mpk, 3.2 mg/kg
[2] = 3473329 dose 10.5 mpk, 10.5 mg/kg
[3] = 3473329 dose 31.6 mpk, 31.6 mg/kg

T1 sequence (Q01177 20-812 limits assumed): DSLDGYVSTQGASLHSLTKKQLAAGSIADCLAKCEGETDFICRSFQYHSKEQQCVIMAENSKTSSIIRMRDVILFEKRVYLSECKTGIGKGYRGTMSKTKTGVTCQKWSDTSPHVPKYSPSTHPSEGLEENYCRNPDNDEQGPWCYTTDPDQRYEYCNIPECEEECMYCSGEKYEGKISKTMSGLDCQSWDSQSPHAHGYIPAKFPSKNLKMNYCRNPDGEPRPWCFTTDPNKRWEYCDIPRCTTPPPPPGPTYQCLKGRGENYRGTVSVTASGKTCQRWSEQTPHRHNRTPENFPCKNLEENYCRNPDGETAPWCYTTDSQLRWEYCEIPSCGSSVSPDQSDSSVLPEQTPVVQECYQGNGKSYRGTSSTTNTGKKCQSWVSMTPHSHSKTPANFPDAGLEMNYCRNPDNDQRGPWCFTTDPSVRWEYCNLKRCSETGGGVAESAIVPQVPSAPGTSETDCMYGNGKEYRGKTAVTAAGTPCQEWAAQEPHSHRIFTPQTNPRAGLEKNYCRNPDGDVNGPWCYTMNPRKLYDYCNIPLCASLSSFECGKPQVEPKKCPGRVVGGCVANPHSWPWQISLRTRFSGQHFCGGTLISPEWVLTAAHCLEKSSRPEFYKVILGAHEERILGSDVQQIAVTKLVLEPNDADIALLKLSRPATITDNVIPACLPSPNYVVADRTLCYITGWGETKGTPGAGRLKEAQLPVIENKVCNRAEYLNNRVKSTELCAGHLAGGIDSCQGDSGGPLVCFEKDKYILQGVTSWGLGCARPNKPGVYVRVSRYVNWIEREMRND

In the case of `O=C(O)[C@@H](Cc1cccc(CN(Cc2cccc(C[C@H](C(=O)O)[C@H]3CCNC3)c2)Cc2cccc(C[C@H](C(=O)O)[C@H]3CCNC3)c2)c1)[C@H]1CCNC1` [LY3473329], the “PLG activity (Vmax), Plasminogen (mean of replicates)” value (shortened to “PLG activity (Vmax), Plasminogen”) (plasmin activity; [1]) is reported as 454.0 and 451.6 and 414.5 and 449.4 and 437.1, the “PLG activity (Vmax), Replicate 1” value (plasmin activity; [1]) is reported as 455.671 and 447.416 and 413.515 and 443.630 and 436.745 and the “PLG activity (Vmax), Replicate 2” value (plasmin activity; [1]) is reported as 452.252 and 455.835 and 415.508 and 455.110 and 437.378. For the same molecule, the “PLG activity (Vmax), % change from Vehicle” value (“PLG activity (Vmax), % change” below) (plasmin activity; [1]) was 5.15% and 4.60% and -3.99% and 4.08% and 1.23%, the “PLG activity (Vmax), Plasminogen” value (plasmin activity; [2]) was 426.8 and 390.7 and 429.5 and 340.1 and 383.7 and the “PLG activity (Vmax), Replicate 1” value (plasmin activity; [2]) was 431.402 and 387.065 and 425.922 and 337.633 and 378.355. The “PLG activity (Vmax), Replicate 2” value (plasmin activity; [2]) was 422.258 and 394.290 and 433.134 and 342.491 and 389.046, the “PLG activity (Vmax), % change” value (plasmin activity; [2]) was -1.14% and -9.51% and -0.51% and -21.24% and -11.13% and the “PLG activity (Vmax), Plasminogen” value (plasmin activity; [3]) was 357.4 and 336.9 and 317.3 and 381.6 and 333.2. The “PLG activity (Vmax), Replicate 1” value (plasmin activity; [3]) was 356.862 and 337.031 and 314.998 and 380.162 and 336.487, the “PLG activity (Vmax), Replicate 2” value (plasmin activity; [3]) was 357.898 and 336.831 and 319.531 and 383.010 and 329.925 and the “PLG activity (Vmax), % change” value (plasmin activity; [3]) was -17.22% and -21.96% and -26.52% and -11.62% and -22.82%. For the same molecule, the “Mean_pCFB_vs_Veh (Lp(a))” value (Lp(a); 1mpk, D01) was 4.27, the “Mean_pCFB_vs_Veh (Lp(a))” value (Lp(a); 1mpk, D03) was -6.51 and the “Mean_pCFB_vs_Veh (Lp(a))” value (Lp(a); 1mpk, D05) was -6.39. The “Mean_pCFB_vs_Veh (Lp(a))” value (Lp(a); 1mpk, D09) was -13.72, the “Mean_pCFB_vs_Veh (Lp(a))” value (Lp(a); 1mpk, D14) was -22.18 and the “Mean_pCFB_vs_Veh (Lp(a))” value (Lp(a); 10mpk, D01) was 3.91. The “Mean_pCFB_vs_Veh (Lp(a))” value (Lp(a); 10mpk, D03) was -29.92, the “Mean_pCFB_vs_Veh (Lp(a))” value (Lp(a); 10mpk, D05) was -32.94 and the “Mean_pCFB_vs_Veh (Lp(a))” value (Lp(a); 10mpk, D09) was -36.99. For the same molecule, the “Mean_pCFB_vs_Veh (Lp(a))” value (Lp(a); 10mpk, D14) was -48.11, the “Mean_pCFB_vs_Veh (Lp(a))” value (Lp(a); 100mpk, D01) was -15.98 and the “Mean_pCFB_vs_Veh (Lp(a))” value (Lp(a); 100mpk, D03) was -38.35. The “Mean_pCFB_vs_Veh (Lp(a))” value (Lp(a); 100mpk, D05) was -32.35, the “Mean_pCFB_vs_Veh (Lp(a))” value (Lp(a); 100mpk, D09) was -50.18 and the “Mean_pCFB_vs_Veh (Lp(a))” value (Lp(a); 100mpk, D14) was -61.77. For the same molecule, the “Mean_pCFB (Lp(a))” value (Lp(a); 1mpk, D01) was -0.85, the “Mean_pCFB (Lp(a))” value (Lp(a); 1mpk, D03) was -12.33 and the “Mean_pCFB (Lp(a))” value (Lp(a); 1mpk, D05) was -14.05. For the same molecule, the “Mean_pCFB (Lp(a))” value (Lp(a); 1mpk, D09) was -21.85, the “Mean_pCFB (Lp(a))” value (Lp(a); 1mpk, D14) was -34.04 and the “Mean_pCFB (Lp(a))” value (Lp(a); 10mpk, D01) was -1.2. The “Mean_pCFB (Lp(a))” value (Lp(a); 10mpk, D03) was -35.74, the “Mean_pCFB (Lp(a))” value (Lp(a); 10mpk, D05) was -40.6 and the “Mean_pCFB (Lp(a))” value (Lp(a); 10mpk, D09) was -45.13. The “Mean_pCFB (Lp(a))” value (Lp(a); 10mpk, D14) was -59.97 and the “Mean_pCFB (Lp(a))” value (Lp(a); 100mpk, D01) was -21.09.
